In the kinase profiling compilation of Christmann-Franck et al. (2016):

Columns and labels:
Assay in all cases: KINOMEscan competition binding
Settings in all cases: compound 10.0 µM
CAMKK1 (human) = CAMKK1 (human) (UniProt Q8N5S9)
CDC42BPB (human) = CDC42BPB (human) (UniProt Q9Y5S2)
CDK11B (human) = CDK11B (human) (UniProt P21127)
CDK15 (human) = CDK15 (human) (UniProt Q96Q40)
CDK16 (human) = CDK16 (human) (UniProt Q00536)
CDK18 (human) = CDK18 (human) (UniProt Q07002)
CDK8 (human) = CDK8 (human) (UniProt P49336)
CDKL2 (human) = CDKL2 (human) (UniProt Q92772)
CHUK (human) = CHUK (human) (UniProt O15111)
CLK4 (human) = CLK4 (human) (UniProt Q9HAZ1)
CSNK1D (human) = CSNK1D (human) (UniProt P48730)
DAPK3 (human) = DAPK3 (human) (UniProt O43293)
EPHA1 (human) = EPHA1 (human) (UniProt P21709)
[1] = tested on: FLT3 (human), P36888 [N841I]
GSK3B (human) = GSK3B (human) (UniProt P49841)
IRAK3 (human) = IRAK3 (human) (UniProt Q9Y616)
LIMK1 (human) = LIMK1 (human) (UniProt P53667)
MAP3K4 (human) = MAP3K4 (human) (UniProt Q9Y6R4)
MAPK11 (human) = MAPK11 (human) (UniProt Q15759)
MAPKAPK2 (human) = MAPKAPK2 (human) (UniProt P49137)
MERTK (human) = MERTK (human) (UniProt Q12866)
MKNK1 (human) = MKNK1 (human) (UniProt Q9BUB5)
PAK1 (human) = PAK1 (human) (UniProt Q13153)
PDGFRA (human) = PDGFRA (human) (UniProt P16234)
PIK3CD (human) = PIK3CD (human) (UniProt O00329)
PIM1 (human) = PIM1 (human) (UniProt P11309)
PRKD2 (human) = PRKD2 (human) (UniProt Q9BZL6)
PRKX (human) = PRKX (human) (UniProt P51817)
RAF1 (human) = RAF1 (human) (UniProt P04049)
RET (human) = RET (human) (UniProt P07949)
RIOK1 (human) = RIOK1 (human) (UniProt Q9BRS2)
RPS6KA2 KD1 (human) = RPS6KA2 KD1 (human) (UniProt Q15349)
SRC (human) = SRC (human) (UniProt P12931)
STK10 (human) = STK10 (human) (UniProt O94804)
STK3 (human) = STK3 (human) (UniProt Q13188)
STK33 (human) = STK33 (human) (UniProt Q9BYT3)
STK35 (human) = STK35 (human) (UniProt Q8TDR2)
STK4 (human) = STK4 (human) (UniProt Q13043)
SYK (human) = SYK (human) (UniProt P43405)
TYRO3 (human) = TYRO3 (human) (UniProt Q06418)

Chain of LIMK1 (human) (P53667 whole entry, looked up): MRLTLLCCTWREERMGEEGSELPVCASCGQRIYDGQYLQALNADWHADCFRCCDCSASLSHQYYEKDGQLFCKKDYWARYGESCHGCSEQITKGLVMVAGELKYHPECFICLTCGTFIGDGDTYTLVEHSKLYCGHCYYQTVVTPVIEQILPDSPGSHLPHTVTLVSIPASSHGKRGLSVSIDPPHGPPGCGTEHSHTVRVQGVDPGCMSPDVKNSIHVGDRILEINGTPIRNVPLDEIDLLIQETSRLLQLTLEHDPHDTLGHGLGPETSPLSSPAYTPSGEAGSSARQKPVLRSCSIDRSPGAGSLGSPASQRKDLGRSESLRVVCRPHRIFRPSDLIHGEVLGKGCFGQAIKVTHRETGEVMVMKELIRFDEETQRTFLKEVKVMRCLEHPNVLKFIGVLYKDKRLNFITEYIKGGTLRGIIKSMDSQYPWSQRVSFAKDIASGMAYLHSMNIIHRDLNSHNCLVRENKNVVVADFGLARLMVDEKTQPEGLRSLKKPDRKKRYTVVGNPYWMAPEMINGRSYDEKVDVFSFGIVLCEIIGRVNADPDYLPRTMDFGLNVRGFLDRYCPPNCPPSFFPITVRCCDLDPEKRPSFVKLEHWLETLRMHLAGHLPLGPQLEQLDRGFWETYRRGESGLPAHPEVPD
Chain of PRKD2 (human) (Q9BZL6 whole entry, looked up): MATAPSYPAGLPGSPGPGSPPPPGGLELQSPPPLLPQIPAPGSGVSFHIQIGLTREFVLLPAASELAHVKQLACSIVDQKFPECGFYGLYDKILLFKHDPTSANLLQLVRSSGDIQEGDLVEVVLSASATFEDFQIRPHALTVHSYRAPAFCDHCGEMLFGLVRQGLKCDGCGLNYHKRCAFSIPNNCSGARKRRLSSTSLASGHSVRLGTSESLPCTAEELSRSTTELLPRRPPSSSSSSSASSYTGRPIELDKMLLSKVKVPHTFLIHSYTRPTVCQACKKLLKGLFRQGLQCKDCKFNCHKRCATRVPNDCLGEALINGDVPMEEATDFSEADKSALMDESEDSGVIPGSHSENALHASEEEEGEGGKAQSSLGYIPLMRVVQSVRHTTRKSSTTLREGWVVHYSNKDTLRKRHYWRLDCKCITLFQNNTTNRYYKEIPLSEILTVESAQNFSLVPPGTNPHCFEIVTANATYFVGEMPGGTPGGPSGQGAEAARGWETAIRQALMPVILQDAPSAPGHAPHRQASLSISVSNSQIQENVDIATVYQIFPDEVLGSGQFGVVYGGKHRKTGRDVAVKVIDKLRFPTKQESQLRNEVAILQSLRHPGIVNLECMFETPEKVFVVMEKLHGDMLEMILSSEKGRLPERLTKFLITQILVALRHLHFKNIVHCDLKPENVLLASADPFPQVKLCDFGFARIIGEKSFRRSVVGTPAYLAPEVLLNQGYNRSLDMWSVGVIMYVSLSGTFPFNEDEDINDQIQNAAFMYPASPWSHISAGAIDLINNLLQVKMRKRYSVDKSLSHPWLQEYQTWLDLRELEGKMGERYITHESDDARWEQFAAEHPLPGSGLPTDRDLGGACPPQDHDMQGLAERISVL
Chain of CSNK1D (human) (P48730 whole entry, looked up): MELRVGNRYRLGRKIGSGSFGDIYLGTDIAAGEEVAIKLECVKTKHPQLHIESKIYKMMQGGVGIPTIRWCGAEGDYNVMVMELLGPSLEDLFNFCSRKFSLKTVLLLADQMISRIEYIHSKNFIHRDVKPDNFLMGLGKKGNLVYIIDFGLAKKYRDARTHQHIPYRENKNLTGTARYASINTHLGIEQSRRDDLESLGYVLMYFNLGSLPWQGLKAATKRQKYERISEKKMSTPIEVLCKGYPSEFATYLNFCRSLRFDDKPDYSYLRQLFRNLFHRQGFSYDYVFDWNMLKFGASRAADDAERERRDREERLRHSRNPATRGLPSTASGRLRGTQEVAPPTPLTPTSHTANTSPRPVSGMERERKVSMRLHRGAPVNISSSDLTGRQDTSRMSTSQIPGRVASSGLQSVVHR
Chain of RIOK1 (human) (Q9BRS2 whole entry, looked up): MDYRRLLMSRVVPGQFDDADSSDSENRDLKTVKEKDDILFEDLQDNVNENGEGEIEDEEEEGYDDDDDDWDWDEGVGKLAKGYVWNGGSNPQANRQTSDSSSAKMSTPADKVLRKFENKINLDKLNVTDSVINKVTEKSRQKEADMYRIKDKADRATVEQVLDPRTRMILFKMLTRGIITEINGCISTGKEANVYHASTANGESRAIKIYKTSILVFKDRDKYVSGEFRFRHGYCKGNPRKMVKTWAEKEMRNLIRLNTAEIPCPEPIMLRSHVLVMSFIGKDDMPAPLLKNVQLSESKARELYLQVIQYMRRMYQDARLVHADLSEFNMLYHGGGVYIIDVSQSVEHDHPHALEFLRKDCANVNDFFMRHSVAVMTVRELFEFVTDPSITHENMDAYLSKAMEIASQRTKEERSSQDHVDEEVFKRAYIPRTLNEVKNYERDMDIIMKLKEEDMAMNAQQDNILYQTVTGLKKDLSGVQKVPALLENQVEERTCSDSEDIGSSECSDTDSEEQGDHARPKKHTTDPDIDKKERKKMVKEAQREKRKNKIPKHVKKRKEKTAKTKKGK
Chain of CHUK (human) (O15111 whole entry, looked up): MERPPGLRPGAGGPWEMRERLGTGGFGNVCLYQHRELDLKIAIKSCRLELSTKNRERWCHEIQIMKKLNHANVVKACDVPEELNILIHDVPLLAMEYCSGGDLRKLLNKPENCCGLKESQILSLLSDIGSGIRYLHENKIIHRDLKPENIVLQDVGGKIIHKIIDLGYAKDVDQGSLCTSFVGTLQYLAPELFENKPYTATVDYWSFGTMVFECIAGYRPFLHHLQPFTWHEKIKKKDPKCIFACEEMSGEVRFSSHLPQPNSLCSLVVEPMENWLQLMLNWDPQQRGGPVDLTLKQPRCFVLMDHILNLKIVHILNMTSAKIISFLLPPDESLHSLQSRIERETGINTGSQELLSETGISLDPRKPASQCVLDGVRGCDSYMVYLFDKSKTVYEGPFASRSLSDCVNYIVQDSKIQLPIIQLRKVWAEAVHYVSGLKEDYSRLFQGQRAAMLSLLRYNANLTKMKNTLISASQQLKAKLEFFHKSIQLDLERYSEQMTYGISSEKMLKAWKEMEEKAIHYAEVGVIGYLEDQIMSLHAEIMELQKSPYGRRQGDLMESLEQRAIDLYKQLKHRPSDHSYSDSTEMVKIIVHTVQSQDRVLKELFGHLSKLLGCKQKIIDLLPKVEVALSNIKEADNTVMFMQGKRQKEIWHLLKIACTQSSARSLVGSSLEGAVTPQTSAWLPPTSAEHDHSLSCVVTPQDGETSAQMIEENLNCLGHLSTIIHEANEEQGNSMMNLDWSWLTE
Chain of RET (human) (P07949 whole entry, looked up): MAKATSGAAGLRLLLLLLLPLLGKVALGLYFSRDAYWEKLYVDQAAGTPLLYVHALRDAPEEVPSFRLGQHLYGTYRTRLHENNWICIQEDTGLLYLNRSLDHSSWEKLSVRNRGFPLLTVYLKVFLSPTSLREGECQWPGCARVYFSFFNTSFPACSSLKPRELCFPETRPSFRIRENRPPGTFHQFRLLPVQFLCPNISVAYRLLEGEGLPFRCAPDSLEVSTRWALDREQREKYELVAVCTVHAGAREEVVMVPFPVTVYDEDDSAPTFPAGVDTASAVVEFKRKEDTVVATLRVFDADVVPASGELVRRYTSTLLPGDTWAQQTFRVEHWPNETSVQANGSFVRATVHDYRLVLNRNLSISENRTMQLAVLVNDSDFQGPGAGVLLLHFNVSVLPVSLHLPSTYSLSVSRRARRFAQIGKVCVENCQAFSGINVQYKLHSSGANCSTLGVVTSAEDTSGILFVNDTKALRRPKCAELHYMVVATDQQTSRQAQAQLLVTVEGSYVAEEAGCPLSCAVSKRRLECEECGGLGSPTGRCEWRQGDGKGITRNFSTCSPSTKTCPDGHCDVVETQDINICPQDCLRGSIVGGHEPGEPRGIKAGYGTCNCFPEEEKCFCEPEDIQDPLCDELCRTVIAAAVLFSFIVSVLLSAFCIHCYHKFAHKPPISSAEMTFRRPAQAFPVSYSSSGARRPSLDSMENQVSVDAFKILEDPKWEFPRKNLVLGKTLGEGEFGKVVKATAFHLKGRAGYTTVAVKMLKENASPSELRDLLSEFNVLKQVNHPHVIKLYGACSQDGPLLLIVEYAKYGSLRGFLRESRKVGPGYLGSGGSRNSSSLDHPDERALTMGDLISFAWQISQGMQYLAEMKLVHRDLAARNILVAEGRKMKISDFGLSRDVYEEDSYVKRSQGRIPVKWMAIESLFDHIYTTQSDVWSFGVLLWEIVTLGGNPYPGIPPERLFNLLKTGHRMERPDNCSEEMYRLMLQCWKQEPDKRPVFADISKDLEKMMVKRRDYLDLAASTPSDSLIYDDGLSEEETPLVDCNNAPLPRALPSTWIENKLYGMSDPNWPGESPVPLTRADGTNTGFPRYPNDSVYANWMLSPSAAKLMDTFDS
Chain of RAF1 (human) (P04049 whole entry, looked up): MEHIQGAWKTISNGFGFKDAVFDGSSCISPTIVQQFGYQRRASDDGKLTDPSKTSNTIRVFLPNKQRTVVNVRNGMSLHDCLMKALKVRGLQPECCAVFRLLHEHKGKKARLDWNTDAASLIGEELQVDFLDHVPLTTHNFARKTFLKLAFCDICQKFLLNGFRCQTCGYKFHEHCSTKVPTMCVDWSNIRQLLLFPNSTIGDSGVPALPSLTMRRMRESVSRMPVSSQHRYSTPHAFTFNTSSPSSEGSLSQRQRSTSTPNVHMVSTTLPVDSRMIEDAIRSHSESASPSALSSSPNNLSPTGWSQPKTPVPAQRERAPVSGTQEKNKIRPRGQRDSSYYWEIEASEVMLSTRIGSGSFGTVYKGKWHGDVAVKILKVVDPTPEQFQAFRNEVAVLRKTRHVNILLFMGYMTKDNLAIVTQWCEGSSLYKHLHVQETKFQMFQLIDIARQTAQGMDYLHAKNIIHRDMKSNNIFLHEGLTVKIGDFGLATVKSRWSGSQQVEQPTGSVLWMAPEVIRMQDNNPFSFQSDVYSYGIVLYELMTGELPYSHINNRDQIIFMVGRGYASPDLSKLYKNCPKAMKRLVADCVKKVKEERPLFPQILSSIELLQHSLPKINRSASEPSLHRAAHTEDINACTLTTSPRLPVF

kinase still bound, per cent of control (CAMKK1 (human)) [%]	kinase still bound, per cent of control (CDC42BPB (human)) [%]	kinase still bound, per cent of control (CDK11B (human)) [%]	kinase still bound, per cent of control (CDK15 (human)) [%]	kinase still bound, per cent of control (CDK16 (human)) [%]	kinase still bound, per cent of control (CDK18 (human)) [%]	kinase still bound, per cent of control (CDK8 (human)) [%]	kinase still bound, per cent of control (CDKL2 (human)) [%]	kinase still bound, per cent of control (CHUK (human)) [%]	kinase still bound, per cent of control (CLK4 (human)) [%]	kinase still bound, per cent of control (CSNK1D (human)) [%]	kinase still bound, per cent of control (DAPK3 (human)) [%]	kinase still bound, per cent of control (EPHA1 (human)) [%]	kinase still bound, per cent of control [1] [%]	kinase still bound, per cent of control (GSK3B (human)) [%]	kinase still bound, per cent of control (IRAK3 (human)) [%]	kinase still bound, per cent of control (LIMK1 (human)) [%]	kinase still bound, per cent of control (MAP3K4 (human)) [%]	kinase still bound, per cent of control (MAPK11 (human)) [%]	kinase still bound, per cent of control (MAPKAPK2 (human)) [%]	Compound	other results
100	100	100	100	100	100	100	28	100	22	100	100	100	100	100	100	100	100	100	100	Cn1c(=O)n(-c2ccc(C(C)(C)C#N)cc2)c2c3cc(-c4cnc5ccccc5c4)ccc3ncc21	kinase still bound, per cent of control (MERTK (human)): 100%; kinase still bound, per cent of control (MKNK1 (human)): 100%; kinase still bound, per cent of control (PAK1 (human)): 100%; kinase still bound, per cent of control (PDGFRA (human)): 100%; kinase still bound, per cent of control (PIK3CD (human)): 7.2%; kinase still bound, per cent of control (PIM1 (human)): 100%; kinase still bound, per cent of control (PRKD2 (human)): 100%; kinase still bound, per cent of control (PRKX (human)): 100%; kinase still bound, per cent of control (RAF1 (human)): 100%; kinase still bound, per cent of control (RET (human)): 100%; kinase still bound, per cent of control (RIOK1 (human)): 100%; kinase still bound, per cent of control (RPS6KA2 KD1 (human)): 100%; kinase still bound, per cent of control (SRC (human)): 100%; kinase still bound, per cent of control (STK10 (human)): 100%; kinase still bound, per cent of control (STK3 (human)): 100%; kinase still bound, per cent of control (STK33 (human)): 100%; kinase still bound, per cent of control (STK35 (human)): 100%; kinase still bound, per cent of control (STK4 (human)): 100%; kinase still bound, per cent of control (SYK (human)): 100%; kinase still bound, per cent of control (TYRO3 (human)): 100%
18	100	100	100	100	100	100	100	100	12	100	7.4	100	0.25	100	34	100	100	100	100	C=CC(=O)Nc1cccc(Oc2nc(Nc3ccc(N4CCN(C)CC4)cc3OC)ncc2Cl)c1	kinase still bound, per cent of control (MERTK (human)): 100%; kinase still bound, per cent of control (MKNK1 (human)): 100%; kinase still bound, per cent of control (PAK1 (human)): 100%; kinase still bound, per cent of control (PDGFRA (human)): 100%; kinase still bound, per cent of control (PIK3CD (human)): 100%; kinase still bound, per cent of control (PIM1 (human)): 100%; kinase still bound, per cent of control (PRKD2 (human)): 15%; kinase still bound, per cent of control (PRKX (human)): 100%; kinase still bound, per cent of control (RAF1 (human)): 100%; kinase still bound, per cent of control (RET (human)): 100%; kinase still bound, per cent of control (RIOK1 (human)): 17%; kinase still bound, per cent of control (RPS6KA2 KD1 (human)): 16%; kinase still bound, per cent of control (SRC (human)): 100%; kinase still bound, per cent of control (STK10 (human)): 100%; kinase still bound, per cent of control (STK3 (human)): 100%; kinase still bound, per cent of control (STK33 (human)): 1.3%; kinase still bound, per cent of control (STK35 (human)): 100%; kinase still bound, per cent of control (STK4 (human)): 100%; kinase still bound, per cent of control (SYK (human)): 100%; kinase still bound, per cent of control (TYRO3 (human)): 100%

Compound	kinase still bound, per cent of control (CAMKK1 (human)) [%]	kinase still bound, per cent of control (CDC42BPB (human)) [%]	kinase still bound, per cent of control (CDK11B (human)) [%]	kinase still bound, per cent of control (CDK15 (human)) [%]	kinase still bound, per cent of control (CDK16 (human)) [%]	kinase still bound, per cent of control (CDK18 (human)) [%]	kinase still bound, per cent of control (CDK8 (human)) [%]	kinase still bound, per cent of control (CDKL2 (human)) [%]	kinase still bound, per cent of control (CHUK (human)) [%]	kinase still bound, per cent of control (CLK4 (human)) [%]	kinase still bound, per cent of control (CSNK1D (human)) [%]	kinase still bound, per cent of control (DAPK3 (human)) [%]	kinase still bound, per cent of control (EPHA1 (human)) [%]	kinase still bound, per cent of control [1] [%]	kinase still bound, per cent of control (GSK3B (human)) [%]	kinase still bound, per cent of control (IRAK3 (human)) [%]	kinase still bound, per cent of control (LIMK1 (human)) [%]	kinase still bound, per cent of control (MAP3K4 (human)) [%]	kinase still bound, per cent of control (MAPK11 (human)) [%]	kinase still bound, per cent of control (MAPKAPK2 (human)) [%]	other results
CN(C)C/C=C/C(=O)Nc1cccc(Nc2ncc3c(n2)N(C)c2ccccc2C(=O)N3C)c1	39	100	100	84	95	100	100	92	100	100	52	45	55	9.2	82	44	71	73	89	100	kinase still bound, per cent of control (MERTK (human)): 46%; kinase still bound, per cent of control (MKNK1 (human)): 38%; kinase still bound, per cent of control (PAK1 (human)): 91%; kinase still bound, per cent of control (PDGFRA (human)): 100%; kinase still bound, per cent of control (PIK3CD (human)): 2.2%; kinase still bound, per cent of control (PIM1 (human)): 66%; kinase still bound, per cent of control (PRKD2 (human)): 36%; kinase still bound, per cent of control (PRKX (human)): 100%; kinase still bound, per cent of control (RAF1 (human)): 96%; kinase still bound, per cent of control (RET (human)): 0.15%; kinase still bound, per cent of control (RIOK1 (human)): 18%; kinase still bound, per cent of control (RPS6KA2 KD1 (human)): 50%; kinase still bound, per cent of control (SRC (human)): 0.7%; kinase still bound, per cent of control (STK10 (human)): 30%; kinase still bound, per cent of control (STK3 (human)): 0%; kinase still bound, per cent of control (STK33 (human)): 8.9%; kinase still bound, per cent of control (STK35 (human)): 89%; kinase still bound, per cent of control (STK4 (human)): 49%; kinase still bound, per cent of control (SYK (human)): 50%; kinase still bound, per cent of control (TYRO3 (human)): 100%
